Laboratory results as given in ChEMBL document CHEMBL5715942, “A novel histone deacetylase 8 (HDAC8)-specific inhibitor PCI-34051 induces apoptosis in T-cell lymphomas” (Leukemia, 2008).
Calls of active or inactive are those of the source. The calls are words filed in the database; no cut-off is given here.

Legend:
A549 = assay: Induction of apoptosis in human A549 cells incubated for 72 hrs by Annexin-V staining based flow cytometry analysis relative to control; assay type: functional
MCF7 [1] = assay: Anti-proliferative activity against human MCF7 cells assessed as growth inhibition incubated for 72 hrs by alamar blue staining based fluorometric assay; assay type: functional
OVCAR-3 [2] = assay: Anti-proliferative activity against human OVCAR-3 cells assessed as growth inhibition incubated for 72 hrs by alamar blue staining based fluorometric assay; assay type: functional
U-87 MG [3] = assay: Anti-proliferative activity against human U87 cells assessed as growth inhibition incubated for 72 hrs by alamar blue staining based fluorometric assay; assay type: functional, U-87MG ATCC
HCT-116 = assay: Induction of apoptosis in human HCT-116 cells incubated for 72 hrs by Annexin-V staining based flow cytometry analysis relative to control; assay type: functional
U-87 MG [4] = assay: Induction of apoptosis in human U87 cells incubated for 72 hrs by Annexin-V staining based flow cytometry analysis relative to control; assay type: functional, U-87MG ATCC
MCF7 [5] = assay: Induction of apoptosis in human MCF7 cells incubated for 72 hrs by Annexin-V staining based flow cytometry analysis relative to control; assay type: functional
OVCAR-3 [6] = assay: Induction of apoptosis in human OVCAR-3 cells incubated for 72 hrs by Annexin-V staining based flow cytometry analysis relative to control; assay type: functional
Jurkat [7] = assay: Anti-proliferative activity against human Jurkat cells assessed as growth inhibition incubated for 72 hrs by alamar blue staining based fluorometric assay; assay type: functional
HuT78 = assay: Anti-proliferative activity against human HuT78 cells assessed as growth inhibition incubated for 72 hrs by alamar blue staining based fluorometric assay; assay type: functional
CCRF-HSB-2 [8] = assay: Anti-proliferative activity against human CCRF-HSB-2 cells assessed as growth inhibition incubated for 72 hrs by alamar blue staining based fluorometric assay; assay type: functional
MOLT-4 [9] = assay: Anti-proliferative activity against human MOLT-4 cells assessed as growth inhibition incubated for 72 hrs by alamar blue staining based fluorometric assay; assay type: functional
SUD4 [10] = assay: Anti-proliferative activity against human SU-DHL-4 cells assessed as growth inhibition incubated for 72 hrs by alamar blue staining based fluorometric assay; assay type: functional
Ramos = assay: Anti-proliferative activity against human Ramos cells assessed as growth inhibition incubated for 72 hrs by alamar blue staining based fluorometric assay; assay type: functional
Raji [11] = assay: Anti-proliferative activity against human Raji cells assessed as growth inhibition incubated for 72 hrs by alamar blue staining based fluorometric assay; assay type: functional
DB [12] = assay: Anti-proliferative activity against human DB cells assessed as growth inhibition incubated for 72 hrs by alamar blue staining based fluorometric assay; assay type: functional
THP-1 [13] = assay: Anti-proliferative activity against human THP-1 cells assessed as growth inhibition incubated for 72 hrs by alamar blue staining based fluorometric assay; assay type: functional
SUD4 [14] = assay: Induction of apoptosis in human SU-DHL-4 cells assessed as cell death at 5 uM incubated for 2 days by Annexin-V staining based flow cytometry analysis; assay type: functional; conditions: time 2.0 day
Jurkat [15] = assay: Induction of apoptosis in human Jurkat cells assessed as cell death at 5 uM incubated for 2 days by Annexin-V staining based flow cytometry analysis; assay type: functional; conditions: time 2.0 day
CCRF-HSB-2 [16] = assay: Induction of apoptosis in human CCRF-HSB-2 cells assessed as cell death at 5 uM incubated for 2 days by Annexin-V staining based flow cytometry analysis; assay type: functional; conditions: time 2.0 day
MOLT-4 [17] = assay: Induction of apoptosis in human MOLT-4 cells assessed as cell death at 5 uM incubated for 2 days by Annexin-V staining based flow cytometry analysis; assay type: functional; conditions: time 2.0 day
Raji [18] = assay: Induction of apoptosis in human Raji cells assessed as cell death at 5 uM incubated for 2 days by Annexin-V staining based flow cytometry analysis; assay type: functional; conditions: time 2.0 day
DB [19] = assay: Induction of apoptosis in human DB cells assessed as cell death at 5 uM incubated for 2 days by Annexin-V staining based flow cytometry analysis; assay type: functional; conditions: time 2.0 day
THP-1 [20] = assay: Induction of apoptosis in human THP-1 cells assessed as cell death at 5 uM incubated for 2 days by Annexin-V staining based flow cytometry analysis; assay type: functional; conditions: time 2.0 day
K562 = assay: Induction of apoptosis in human K562 cells assessed as cell death at 5 uM incubated for 2 days by Annexin-V staining based flow cytometry analysis; assay type: functional; conditions: time 2.0 day
RPMI-8226 = assay: Induction of apoptosis in human RPMI-8226 cells assessed as cell death at 5 uM incubated for 2 days by Annexin-V staining based flow cytometry analysis; assay type: functional; conditions: time 2.0 day
Jurkat [21] = assay: Cytotoxicity in human Jurkat cells assessed as tubulin acetylation at <25 uM incubated for 24 hrs by Western blotting analysis; assay type: functional, cell-based
Jurkat [22] = assay: Cytotoxicity in human Jurkat cells assessed as histone acetylation at <25 uM incubated for 24 hrs by Western blotting analysis; assay type: functional, cell-based
Jurkat [23] = assay: Induction of apoptosis in human Jurkat cells assessed as PARP cleavage at 5 uM incubated for 48 hrs by Western blotting analysis; assay type: functional, cell-based
J.gamma1 [24] = assay: Induction of apoptosis in human J.gamma1 cells assessed as abolished intracellular calcium level at 10 uM incubated for 5 mins in presence of Iodo-1 by spectrofluorimetric analysis; assay type: functional, cell-based
Jurkat [25] = assay: Induction of apoptosis in human Jurkat cells assessed as increase in intracellular calcium level at 2.5 to 10 uM incubated for 5 mins in presence of Iodo-1 and Ionomycin by spectrofluorimetric analysis; assay type: functional, cell-based; conditions: dose 2.5-10 µM
Jurkat [26] = assay: Induction of apoptosis in human Jurkat cells assessed as increase in intracellular calcium level incubated for 5 mins in presence of Iodo-1 by spectrofluorimetric analysis; assay type: functional, cell-based; conditions: dose 2.5-10 µM
J.gamma1 [27] = assay: Induction of apoptosis in human J.gamma1 cells at 5 uM incubated for 24 hrs in presence of thapsigargin by Annexin-V staining based flow cytometry analysis relative to control; assay type: functional
Jurkat [28] = assay: Induction of apoptosis in human Jurkat cells at 5 uM incubated for 24 hrs in presence of thapsigargin by Annexin-V staining based flow cytometry analysis relative to control; assay type: functional
Jurkat [29] = assay: Downregulation of apoptosis in human Jurkat cells at 10 uM incubated for 2 days in presence of U-73343 by Annexin-V staining based flow cytometry analysis; assay type: functional, cell-based; conditions: time 2.0 day
J.gamma1 [30] = assay: Induction of apoptosis in human J.gamma1 cells at 10 uM incubated for 2 days in presence of U-73122 by Annexin-V staining based flow cytometry analysis; assay type: functional, cell-based; conditions: time 2.0 day
J.gamma1 [31] = assay: Downregulation of apoptosis in human J.gamma1 cells at 5 uM incubated for 2 days by Annexin-V staining based flow cytometry analysis; assay type: functional, cell-based; conditions: time 2.0 day
Jurkat [32] = assay: Induction of apoptosis in human Jurkat cells assessed as decrease in intracellular calcium level at 10 uM in presence of Iodo-1 and U73122 by spectrofluorimetric analysis; assay type: functional, cell-based
Jurkat [33] = assay: Induction of apoptosis in human Jurkat cells assessed as increase in cytosolic cytochrome c level at 10 uM incubated for 12 to 24 hrs by Western blotting analysis; assay type: functional, cell-based; conditions: time lower 12.0 hrs, time upper […]
J.gamma1 [34] = assay: Induction of apoptosis in human J.gamma1 cells assessed as cytochrome c release from mitochondria at 10 uM incubated for 12 to 24 hrs by Western blotting analysis; assay type: functional, cell-based; conditions: time lower 12.0 hrs, time upper […]
Jurkat [35] = assay: Induction of apoptosis in human Jurkat cells assessed as decrease in FL-Bid at 5 uM incubated for 24 hrs by Western blotting analysis
J.gamma1 [36] = assay: Downregulation of apoptosis in human J.gamma1 cells at 10 uM incubated for 24 hrs in presence of BAPTA-AM by Annexin-V staining based flow cytometry analysis

COc1ccc(Cn2ccc3ccc(C(=O)NO)cc32)cc1
Activity (A549): 0% | GI50 (MCF7 [1]): > 20 µM | GI50 (OVCAR-3 [2]): 6 µM | GI50 (U-87 MG [3]): 17 µM | Activity (HCT-116): 3% | Activity (U-87 MG [4]): 0% | Activity (MCF7 [5]): 0% | Activity (OVCAR-3 [6]): 15% | GI50 (Jurkat [7]): 2.4 µM | GI50 (HuT78): 4 µM | GI50 (CCRF-HSB-2 [8]): 1.4 µM | GI50 (MOLT-4 [9]): 3.3 µM | GI50 (SUD4 [10]): 8.2 µM | GI50 (Ramos): 6.1 µM | GI50 (Raji [11]): 6.8 µM | GI50 (DB [12]): 21.2 µM | GI50 (THP-1 [13]): 15.4 µM | Activity (SUD4 [14]): inactive | Activity (Jurkat [15]): Active | Activity (CCRF-HSB-2 [16]): Active | Activity (MOLT-4 [17]): Active | Activity (Raji [18]): inactive | Activity (DB [19]): inactive | Activity (THP-1 [20]): inactive | Activity (K562): inactive | Activity (RPMI-8226): inactive | Activity (Jurkat [21]): inactive | Activity (Jurkat [22]): inactive | Activity (Jurkat [23]): Active | Activity (J.gamma1 [24]): inactive | Activity (Jurkat [25]): Active | Activity (Jurkat [26]): Dose-Dependent Effect | Activity (J.gamma1 [27]): 2% | Activity (Jurkat [28]): > 30% | Activity (Jurkat [29]): inactive | Activity (J.gamma1 [30]): inactive | Activity (J.gamma1 [31]): Active | Activity (Jurkat [32]): Active | Activity (Jurkat [33]): Active | Activity (J.gamma1 [34]): inactive | Activity (Jurkat [35]): inactive | Activity (J.gamma1 [36]): inactive
